Reference: patent publication EP1156056A1, “5-GLYCOSYLOXY-6-HYDROXYNAPHTHO 2,3-f]QUINOLINE-7,12-DIONE HAVING ANTICANCER ACTIVITIES” (ZAIDAN HOJIN BISEIBUTSU KAGAKU KENKYU KAI, priority 1999, dated 2000)
Converted amounts (≈) assume the structure as drawn. Where two headings read alike, the source gives them in different places.

Assays:
Assay type in all cases: cell-based
[1] = system: human prostatic cancer (LNcap); test: Inhibition of proliferation of cancer cells in culture (Test Examples 1 and 3)
Experimental: (§1) A culture medium for cancer cells was put into test tubes. To the culture medium in each tube, there was transplanted each of such various mouse cancer cells or human cancer cells as shown in Table 1 below. The cells so transplanted were cultivated under the conditions at 37°C in an air atmosphere containing 5 % CO2. To the medium containing the cancer cells so cultivated, there was added said Compounds A, B, D, E or F of this invention at different concentrations, as the test compound. […] As the comparative compound, adriamycin now clinically used was tested to repeat the test in the same way.
(§2) Namely, they are mouse colon cancer (colon 26), mouse B-cell lymphoma (LB32T), mouse lymphoma (L-1210), human cervical cancer (HeLa), human acute promyeloleukemia (HL60), human prostatic cancer (PC3), human pudendal squamous cell carcinoma (A431), human pulmonary carcinoma (PC6), human mastocarcinoma (MCF7), human esophageal carcinoma (TT), human prostatic cancer (LNcap) and human colon cancer (DLD-1).
(§3) The test method and the nature of cancer cells to be tested are the same as those in Test Example 1 given hereinbefore. In this Test Example 3, however, eight kinds of cancer cells indicated in Table 3 below are used, among the twelve kinds of cancer cells which were used in Test Example 1.
(§4) As the test results of measurement, the evaluated values of the concentration of each test compound which could inhibit the proliferation of cancer cells by 50 % (namely, 50 % inhibitory concentration:IC50, µg/ml) are given in Table 3.

[2] = system: human colon cancer (DLD-1); test: as above; conditions: for IC50: Homo sapiens; for anticancer activities against DLD-1, times higher than those of adriamycin: Test Example 1, relative to adriamycin
Experimental: as §1, §2, §3, §4

[3] = system: human acute promyeloleukemia (HL60); test: as above
Experimental: as §1, §2, §3, §4

[4] = system: human cervical cancer (HeLa); test: as above
Experimental: as §1, §2, §3, §4

[5] = system: human prostatic cancer (PC3); test: as above; conditions: for IC50: Homo sapiens; for anticancer activities against PC3, times higher than those of adriamycin: Test Example 1, relative to adriamycin
Experimental: as §1, §2, §3, §4

[6] = system: human mastocarcinoma (MCF7); test: Inhibition of proliferation of cancer cells in culture (Test Example 1); conditions: 72 hours cultivation, read-out: Concentration of test compound to inhibit the proliferation of cancer cells by 50 %
Experimental: as §1, §2

[7] = system: human pulmonary carcinoma (PC6); test: as above; conditions: 72 hours cultivation, read-out: Concentration of test compound to inhibit the proliferation of cancer cells by 50 %
Experimental: as §1, §2

[8] = system: human esophageal carcinoma (TT); test: as above; conditions: 72 hours cultivation, read-out: Concentration of test compound to inhibit the proliferation of cancer cells by 50 %
Experimental: as §1, §2

[9] = system: human pudendal squamous cell carcinoma (A431); test: as above; conditions: A-431, 72 hours cultivation, read-out: Concentration of test compound to inhibit the proliferation of cancer cells by 50 %
Experimental: as §1, §2

[10] = system: mouse colon cancer (colon 26); test: Inhibition of proliferation of cancer cells in culture (Test Examples 1 and 3)
Experimental: as §1, §2, §3, §4

[11] = system: mouse B-cell lymphoma (LB32T); test: as above
Experimental: as §1, §2, §3, §4

mouse lymphoma (L-1210) = test: as above
Experimental: as §1, §2, §3, §4

[12] = LNcap, 72 hours cultivation, Test Example 1, read-out: Concentration of test compound to inhibit the proliferation of cancer cells by 50 %, IC50
[13] = 72 hours cultivation, Test Example 1, read-out: Concentration of test compound to inhibit the proliferation of cancer cells by 50 %, IC50
[14] = HL-60, 72 hours cultivation, Test Example 1, read-out: Concentration of test compound to inhibit the proliferation of cancer cells by 50 %, IC50
[15] = colon26, 72 hours cultivation, Test Example 1, read-out: Concentration of test compound to inhibit the proliferation of cancer cells by 50 %, IC50
[16] = L1210, 72 hours cultivation, Test Example 1, read-out: Concentration of test compound to inhibit the proliferation of cancer cells by 50 %, IC50
[17] = LNCap, Test Example 3, Compounds N to T used as trifluoroacetate, read-out: IC50
[18] = Test Example 3, Compounds N to T used as trifluoroacetate, read-out: IC50
[19] = Colon26, Test Example 3, Compounds N to T used as trifluoroacetate, read-out: IC50
[20] = HL-60, Test Example 3, Compounds N to T used as trifluoroacetate, read-out: IC50
[21] = L1210, Test Example 3, Compounds N to T used as trifluoroacetate, read-out: IC50
[22] = Test Example 3, relative to adriamycin

Structure (SMILES)	IC50 [1, 12] [mg/L]	IC50 [2, 13] [mg/L]	anticancer activities against DLD-1, times higher than those of adriamycin [2] [times]	IC50 [3, 14] [mg/L]	IC50 [4, 13] [mg/L]	IC50 [5, 13] [mg/L]	IC50 [6] [mg/L]	IC50 [7] [mg/L]	IC50 [8] [mg/L]	IC50 [9] [mg/L]	anticancer activities against PC3, times higher than those of adriamycin [5] [times]	IC50 [1, 17] [mg/L]	IC50 [2, 18] [mg/L]	IC50 [10, 19] [mg/L]	IC50 [11, 18] [mg/L]	IC50 [3, 20] [mg/L]	IC50 [4, 18] [mg/L]	IC50 [5, 18] [mg/L]	IC50 (mouse lymphoma (L-1210); [21]) [mg/L]	other results
CO[C@H]1[C@H](Oc2c(O)c3c(c4cccnc24)C(=O)c2ccccc2C3=O)O[C@@H](C)[C@@H](O)[C@H]1O [Compound B, 5-(6-deoxy-2-O-methyl-α-L-talopyranosyloxy)-6-hydroxynaphtho[2,3-f]quinoline-7,12-dione]	1.54 (≈ 3.41 µM)	1.13 (≈ 2.5 µM)	1.7	1.51 (≈ 3.34 µM)	1.65 (≈ 3.66 µM)	1.59 (≈ 3.52 µM)	2.59 (≈ 5.74 µM)	4.15 (≈ 9.19 µM)	3.46 (≈ 7.66 µM)	3.33 (≈ 7.38 µM)										
C[C@@H]1O[C@@H](Oc2c(O)c3c(c4cccnc24)C(=O)c2ccccc2C3=O)[C@@H](F)[C@H](O)[C@@H]1O [Compound D, 5-(2,6-dideoxy-2-fluoro-α-L-galactopyranosyloxy)-6-hydroxynaphtho[2,3-f]quinoline-7,12-dione]	0.31 (≈ 0.706 µM)	0.12 (≈ 0.273 µM)	16	0.35 (≈ 0.797 µM)	0.45 (≈ 1.02 µM)	0.11 (≈ 0.25 µM)	1.24 (≈ 2.82 µM)	1.06 (≈ 2.41 µM)	1.18 (≈ 2.69 µM)	1.26 (≈ 2.87 µM)	8.2									IC50 [10, 15]: 0.2 mg/L (≈ 0.455 µM); IC50 [11, 13]: 0.3 mg/L (≈ 0.683 µM); IC50 (mouse lymphoma (L-1210); [16]): 0.47 mg/L (≈ 1.07 µM)
C[C@@H]1O[C@H](Oc2c(O)c3c(c4cccnc24)C(=O)c2ccccc2C3=O)[C@@H](F)[C@H](O)[C@@H]1O [Compound E, 5-(2,6-dideoxy-2-fluoro-β-L-galactopyranosyloxy)-6-hydroxynaphtho[2,3-f]quinoline-7,12-dione]	0.1 (≈ 0.228 µM)	0.04 (≈ 0.091 µM)		0.33 (≈ 0.751 µM)	0.16 (≈ 0.364 µM)	0.08 (≈ 0.182 µM)	1.26 (≈ 2.87 µM)	1.08 (≈ 2.46 µM)	1.12 (≈ 2.55 µM)	1.11 (≈ 2.53 µM)	11									IC50 [10, 15]: 0.23 mg/L (≈ 0.523 µM); IC50 [11, 13]: 0.26 mg/L (≈ 0.592 µM); IC50 (mouse lymphoma (L-1210); [16]): 0.54 mg/L (≈ 1.23 µM)
C[C@@H]1O[C@@H](Oc2c(O)c3c(c4cccnc24)C(=O)c2ccccc2C3=O)[C@H](F)[C@H](O)[C@H]1N [Compound F, 5-(4-amino-2,4,6-trideoxy-2-fluoro-α-L-mannopyranosyloxy)-6-hydroxynaphtho[2,3-f]quinoline-7,12-dione]	0.67 (≈ 1.53 µM)	0.17 (≈ 0.388 µM)	11	0.11 (≈ 0.251 µM)	0.34 (≈ 0.776 µM)	0.35 (≈ 0.798 µM)	2.46 (≈ 5.61 µM)	2.92 (≈ 6.66 µM)	3.48 (≈ 7.94 µM)	2.25 (≈ 5.13 µM)	2.6									
C[C@@H]1O[C@@H](Oc2c(O)c3c(c4cccnc24)C(=O)c2ccccc2C3=O)[C@H](F)[C@H](OC(=O)CCN)[C@@H]1OC(=O)CCN [Compound P, 5-[3,4-di-O-(3-aminopropionyl)-2,6-dideoxy-2-fluoro-α-L-talopyranosyloxy]-6-hydroxynaphtho [2,3-f]quinoline-7,12-dione]												1.46 (≈ 2.51 µM)	0.46 (≈ 0.791 µM)	0.91 (≈ 1.56 µM)	0.82 (≈ 1.41 µM)	0.6 (≈ 1.03 µM)	0.89 (≈ 1.53 µM)	0.55 (≈ 0.946 µM)	1.27 (≈ 2.18 µM)	
C[C@@H]1O[C@@H](Oc2c(O)c3c(c4cccnc24)C(=O)c2ccccc2C3=O)[C@@H](F)[C@H](OC(=O)CCN)[C@@H]1OC(=O)CCN [Compound Q, 5-[3,4-di-O-(3-aminopropionyl)-2,6-dideoxy-2-fluoro-α-L-galactopyranosyloxy]-6-hydroxynaphtho [2,3-f]quinoline-7,12-dione]												1.54 (≈ 2.65 µM)	0.71 (≈ 1.22 µM)	1.43 (≈ 2.46 µM)	0.78 (≈ 1.34 µM)	1.09 (≈ 1.87 µM)	1.7 (≈ 2.92 µM)	0.79 (≈ 1.36 µM)	2.09 (≈ 3.59 µM)	
C[C@@H]1O[C@H](Oc2c(O)c3c(c4cccnc24)C(=O)c2ccccc2C3=O)[C@@H](F)[C@H](OC(=O)CCN)[C@@H]1O [Compound R, 5-[3-O-(3-aminopropionyl)-2,6-dideoxy-2-fluoro-β-L-galactopyranosyloxy]-6-hydroxynaphtho [2,3-f]quinoline-7,12-dione]												0.47 (≈ 0.921 µM)	0.18 (≈ 0.353 µM)	0.46 (≈ 0.901 µM)	0.68 (≈ 1.33 µM)	0.54 (≈ 1.06 µM)	0.29 (≈ 0.568 µM)	0.39 (≈ 0.764 µM)	0.72 (≈ 1.41 µM)	anticancer activity against DLD-1, times higher than that of adriamycin [2, 22]: 19 times; anticancer activity against PC3, times higher than that of adriamycin [5, 22]: 2.9 times
C[C@@H]1O[C@H](Oc2c(O)c3c(c4cccnc24)C(=O)c2ccccc2C3=O)[C@@H](F)[C@H](OC(=O)CCN)[C@@H]1OC(=O)CCN [Compound S, 5-[3,4-di-O-(3-aminopropionyl)-2,6-dideoxy-2-fluoro-β-L-galactopyranosyloxy]-6-hydroxynaphtho[2,3-f] quinoline-7,12-dione]												0.52 (≈ 0.894 µM)	0.42 (≈ 0.722 µM)	0.65 (≈ 1.12 µM)	0.79 (≈ 1.36 µM)	0.68 (≈ 1.17 µM)	0.64 (≈ 1.1 µM)	0.55 (≈ 0.946 µM)	1.13 (≈ 1.94 µM)	
C[C@@H]1O[C@H](Oc2c(OC(=O)CCN)c3c(c4cccnc24)C(=O)c2ccccc2C3=O)[C@@H](F)[C@H](OC(=O)CCN)[C@@H]1OC(=O)CCN [Compound T, 5-[3,4-di-O-(3-aminopropionyl)-2,6-dideoxy-2-fluoro-β-L-galactopyranosyloxy)-6-(3-aminopropionyloxy)-naphtho[2,3-f]quinoline-7,12-dione]												0.57 (≈ 0.873 µM)	0.45 (≈ 0.69 µM)	0.55 (≈ 0.843 µM)	0.8 (≈ 1.23 µM)	0.78 (≈ 1.2 µM)	0.15 (≈ 0.23 µM)	0.65 (≈ 0.996 µM)	1.17 (≈ 1.79 µM)	
